The results in this text go back to ChEMBL document CHEMBL1201862, “PubChem BioAssay data set” (2004).

SMILES strings stand for the structures.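 Each compound was tested at five concentrations against cells in 96-well plates for 48 hours. Abbreviation: GI50, concentration required for 50% inhibition of growth.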 Active and inactive are the calls of the source. No stated cut-off is given here; in the data, active = GI50 up to about 1.1 µM and inactive = higher.

Common to all, as to experiment: inhibition of tumour cell growth, NCI panel, 48 h
The subject of test [1] is 786-0.
Test [2] deals with PC-3.
In test [3] the test system is HCT-15.
Test [4] relates to OVCAR-3.
The test system of test [5] is HCT-116.
For test [6], the system named is NCI-H460.
Test [7] concerns COLO 205.
For test [8], the system named is CAKI-1.
The test system of test [9] is DU-145.
Test [10] has as its system OVCAR-4.
The test system of test [11] is SF-268.
Test [12] has as its system RPMI-8226.
Test [13] deals with UACC-257.
Test [14] has as its system HT-29.
In test [15] the test system is UO-31.
Test [16] concerns NCI-H226.
Test [17] relates to SW-620.
For test [18], the system named is HL-60.
The test system of test [19] is LOX IMVI.
Test [20] relates to RXF 393.

As to `CCOC(=O)[C@H]1O[C@@H]1C(=O)NC(CC(C)C)C(=O)NCCC(C)C` (some centres undefined), the GI50 in [1] was > 100 µM (inactive); in [2], > 100 µM (inactive); in test [3], above 100 µM; in test [4] it was > 100 µM (inactive); in test [5], > 100 µM (inactive); in test [6], > 100 µM (inactive). In addition, the GI50 in [7], in test [8], in [9], in test [10], in [11] and in [12] was > 100 µM (inactive) each time. Besides, the GI50 in [13], in [14], in test [15], in test [16] and in test [17] was > 100 µM (inactive) throughout.
For the compound `CC12CCCC3(CC(=O)C(C)(C)C3C(=O)C1)C2` (centres undefined), the GI50 in test [1] was > 100 µM (inactive); in test [2], > 100 µM (inactive); in test [3], above 100 µM; in [4], > 100 µM (inactive); in test [5] it was > 100 µM (inactive); in test [6] it was > 100 µM (inactive). Moreover, the GI50 in test [18], in [7], in test [8], in test [9], in test [10] and in test [11] was > 100 µM (inactive) in each case. In addition, the GI50 in [12], in test [13], in [14], in test [15], in test [16] and in test [19] was > 100 µM (inactive) throughout. Besides, the GI50 in test [17] is > 100 µM (inactive).
For the compound `COc1cc(OC)c(OC)cc1/C=C/c1ccc2ccccc2n1`, the GI50 in [1] is > 10 µM (inactive); in test [2], 6.08 µM (inactive); in test [3] it was 7.62 µM; in test [4], > 10 µM (inactive); in test [5], 3.72 µM (inactive); in test [18] it was 3.27 µM (inactive). The GI50 was > 10 µM (inactive) in test [7]; > 10 µM (inactive) in [8]; > 10 µM (inactive) in [9]; > 10 µM (inactive) in [10]; > 10 µM (inactive) in test [11]; 3.66 µM (inactive) in test [12]. Besides, the GI50 is > 10 µM (inactive) in test [13], 4.35 µM (inactive) in test [14], > 10 µM (inactive) in test [19] and > 10 µM (inactive) in test [17].
Turning to `C/C=C1/CN2CCC34c5ccccc5N(C)C23C2CC1C4(C(=O)OC)C(O)O2` (centres undefined), the GI50 in [1] is > 100 µM (inactive); in test [2], > 100 µM (inactive); in test [3], above 100 µM; in test [4], > 100 µM (inactive); in test [5], > 100 µM (inactive); in [6], > 100 µM (inactive). Besides, the GI50 in [18], in test [7], in test [8], in test [9], in test [10] and in test [11] was > 100 µM (inactive) throughout. The GI50 in test [12], in [13], in [14], in [15], in test [16] and in test [19] was > 100 µM (inactive) throughout. Besides, in [17], the GI50 was > 100 µM (inactive).
`c1ccc2c(c1)Nc1cccc3c1c-2nc1cc2ccccc2cc13`: the GI50 was 1.72 µM (inactive) in test [1]; 1.53 µM (inactive) in test [2]; 1.59 µM (inactive) in [4]; 1.75 µM (inactive) in test [5]; 1.57 µM (inactive) in test [20]; 1.65 µM (inactive) in [6]. Also, the GI50 in test [7] was 1.63 µM (inactive); in test [8], 1.64 µM (inactive); in [9], 1.7 µM (inactive); in [10], 1.87 µM (inactive); in test [11], 1.71 µM (inactive); in test [13], 1.58 µM (inactive). The GI50 was 1.72 µM (inactive) in test [14]; 1.63 µM (inactive) in test [15]; 1.85 µM (inactive) in test [16]; 1.55 µM (inactive) in test [19]; 1.53 µM (inactive) in [17].
Turning to `CC(C)=Cc1cc(C)c2c(O)cc(C)c3c2c1C(C)=C(O)C3=O`, the GI50 is 25.8 µM (inactive) in [1]; 32.8 µM (inactive) in test [2]; 23 µM in [3]; 20.6 µM (inactive) in [4]; 17.7 µM (inactive) in test [5]; 21.2 µM (inactive) in [6]. Besides, the GI50 was 29.9 µM (inactive) in test [18]; 13 µM (inactive) in test [7]; 27 µM (inactive) in [8]; 28.7 µM (inactive) in test [9]; 21.1 µM (inactive) in test [11]; 0.0257 µM (active) in test [12]. The GI50 in test [13] was 36.6 µM (inactive); in [14], 14.9 µM (inactive); in test [15], 32.7 µM (inactive); in test [16], 21.5 µM (inactive); in [19] it was 20.1 µM (inactive); in test [17] it was 31.5 µM (inactive).
For the compound `COc1ccc2oc(OC)c(CC=C(C)C)c(=O)c2c1C`, the GI50 is > 100 µM (inactive) in test [1]; > 100 µM (inactive) in test [2]; above 100 µM in [3]; > 100 µM (inactive) in [4]; > 100 µM (inactive) in [5]; > 100 µM (inactive) in test [6]. The GI50 in test [18], in test [7], in test [8], in [9], in test [11] and in test [12] was > 100 µM (inactive) in each case. The GI50 in [13], in test [14], in test [15], in test [16], in test [19] and in test [17] was > 100 µM (inactive) throughout.
Consider `Cc1c2c(Cl)c3c(c(Cl)c2c(C)c2c(Cl)c4c(c(Cl)c12)C(c1ccccc1)(c1ccccc1)C4(c1ccccc1)c1ccccc1)C(c1ccccc1)(c1ccccc1)C3(c1ccccc1)c1ccccc1`, for which the GI50 in test [1] was > 100 µM (inactive); in [2] it was > 100 µM (inactive); in test [3], above 100 µM; in test [4] it was > 100 µM (inactive); in test [5] it was > 100 µM (inactive); in test [20], > 100 µM (inactive). The GI50 in test [6], in test [7], in test [8], in test [9], in test [10] and in test [11] was > 100 µM (inactive) in each case. Further, the GI50 in test [13], in [14], in test [15], in test [16], in test [19] and in test [17] was > 100 µM (inactive) in each case.
On to `CNc1cc(N)ccc1C(=O)N1CCC[C@H]1CO`, for which the GI50 in [1] was > 100 µM (inactive); in [2] it was > 100 µM (inactive); in test [3], above 100 µM; in test [4], > 100 µM (inactive); in test [5], > 100 µM (inactive); in [6] it was > 100 µM (inactive). The GI50 in test [9], in test [11], in [12], in test [13], in [14] and in test [15] was > 100 µM (inactive) in each case. Also, the GI50 is 27.3 µM (inactive) in test [16], > 100 µM (inactive) in [19] and > 100 µM (inactive) in test [17].
In the case of `CCNCCNc1c2ccccc2nc2ccccc12`, the GI50 in test [1] was 0.791 µM (active); in [2] it was 0.828 µM (active); in test [3], 1.48 µM; in test [4], 4.05 µM (inactive); in test [5] it was 0.515 µM (active); in test [20], 1.23 µM (inactive). The GI50 in test [6] is 0.453 µM (active); in [18], 2.24 µM (inactive); in test [7], 0.822 µM (active); in [8], 0.698 µM (active); in test [9] it was 1.62 µM (inactive); in test [10], 1.14 µM (inactive). Moreover, the GI50 in test [11] is 1.35 µM (inactive); in test [13] it was 1.66 µM (inactive); in test [14], 0.427 µM (active); in [15] it was 1.49 µM (inactive); in [19], 0.743 µM (active); in test [17], 0.147 µM (active).
`CN(C)CCn1c(=O)c2ccc(NCCN3CCNCC3)c3c(=O)c4ccccc4n(c1=O)c23`: the GI50 was 0.358 µM (active) in [1]; 1.79 µM (inactive) in [2]; 1.53 µM in test [3]; 5.05 µM (inactive) in [4]; 0.692 µM (active) in test [5]; 0.586 µM (active) in test [6]. Moreover, the GI50 in test [18] was 2.59 µM (inactive); in test [7], 1.35 µM (inactive); in [8], 2.04 µM (inactive); in test [9] it was 3.39 µM (inactive); in test [10] it was 5.69 µM (inactive); in test [11], 1.13 µM (inactive). Moreover, the GI50 was 0.251 µM (active) in [12]; 4.07 µM (inactive) in [13]; 0.82 µM (active) in test [14]; 4.94 µM (inactive) in test [15]; 2.38 µM (inactive) in test [16]; 1.69 µM (inactive) in test [19]. For the same compound, in test [17], the GI50 is 0.378 µM (active).
